The supplement of paper PMC5908809

Legend:
[1] = tested on: normal NK cells expanded with K562-aAPC; assay: percent inhibition of viability; higher = more inhibition; details: 72 h, IL-2 2.5 ng/mL
Description: (§1)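 Drug sensitivity and resistance testing on K562-aAPC-expanded normal NK cells: 5 concentrations (10-fold steps over a 10,000-fold range), 72 h at 37 °C, viability by CellTiter-Glo normalised to DMSO and benzethonium chloride controls; DSS from the fitted curve.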

DERL-7 (IL-2 2.5 ng/mL) [2] = assay: as above; details: 72 h
IMC-1 (IL-2 20 ng/mL) [3] = assay: as above; details: 72 h
KAI3 (IL-2 2.5 ng/mL) [4] = assay: as above; details: 72 h
KHYG-1 (IL-2 2.5 ng/mL) [5] = assay: as above; details: 72 h
NK-92 (IL-2 2.5 ng/mL) [6] = assay: as above; details: 72 h
NK-YS (IL-2 2.5 ng/mL) [7] = assay: as above; details: 72 h
NKL (IL-2 2.5 ng/mL) [8] = assay: as above; details: 72 h
SNK-6 (IL-2 2.5 ng/mL) [9] = assay: as above; details: 72 h
YT (IL-2 2.5 ng/mL) [10] = assay: as above; details: 72 h
[11] = tested on: normal primary NK cells, pool 1 (3 donors) (IL-2 2.5 ng/mL); assay: as above; details: 72 h
[12] = tested on: normal primary NK cells, pool 1 (3 donors), resting (IL-2 0 ng/mL); assay: as above; details: 72 h
[13] = tested on: normal primary NK cells, pool 2 (3 donors) (IL-2 2.5 ng/mL); assay: as above; details: 72 h
[14] = tested on: normal primary NK cells, pool 3 (3 donors) (IL-2 2.5 ng/mL); assay: as above; details: 72 h
[15] = tested on: normal NK cells expanded with K562-aAPC; assay: drug sensitivity score (DSS) (DSS units); higher = more sensitive; extreme values may be limits of the assay; details: 72 h; IL-2 2.5 ng/mL
Description: as §1

DERL-7 (IL-2 2.5 ng/mL) [16] = assay: as above; details: 72 h
IMC-1 (IL-2 20 ng/mL) [17] = assay: as above; details: 72 h
KAI3 (IL-2 2.5 ng/mL) [18] = assay: as above; details: 72 h
KHYG-1 (IL-2 2.5 ng/mL) [19] = assay: as above; details: 72 h
NK-92 (IL-2 2.5 ng/mL) [20] = assay: as above; details: 72 h
NK-YS (IL-2 2.5 ng/mL) [21] = assay: as above; details: 72 h
NKL (IL-2 2.5 ng/mL) [22] = assay: as above; details: 72 h
SNK-6 (IL-2 2.5 ng/mL) [23] = assay: as above; details: 72 h
YT (IL-2 2.5 ng/mL) [24] = assay: as above; details: 72 h
[25] = tested on: normal primary NK cells, pool 1 (3 donors) (IL-2 2.5 ng/mL); assay: as above; details: 72 h
[26] = tested on: normal primary NK cells, pool 1 (3 donors), resting (IL-2 0 ng/mL); assay: as above; details: 72 h
[27] = tested on: normal primary NK cells, pool 2 (3 donors) (IL-2 2.5 ng/mL); assay: as above; details: 72 h
[28] = tested on: normal primary NK cells, pool 3 (3 donors) (IL-2 2.5 ng/mL); assay: as above; details: 72 h

Cc1cc(Nc2nc(N[C@@H](C)c3ncc(F)cn3)ncc2Cl)[nH]n1 [AZD1480] (max concentration tested 1000 nM)
percent inhibition of viability [%]
Details	0.1 nM	1 nM	10 nM	100 nM	1000 nM
DERL-7 (IL-2 2.5 ng/mL) [2]	0.17	6.33	14.9	62	94.2
IMC-1 (IL-2 20 ng/mL) [3]	-4.11	-5.28	-12.7	-1.83	73.8
KAI3 (IL-2 2.5 ng/mL) [4]	3.55	2.45	24.7	77	87.5
KHYG-1 (IL-2 2.5 ng/mL) [5]	0.27	3.46	15.9	86.6	95.6
NK-92 (IL-2 2.5 ng/mL) [6]	-8.05	3.14	1.52	28.2	78
NK-YS (IL-2 2.5 ng/mL) [7]	0.27	-0.67	8.06	35.8	65.3
NKL (IL-2 2.5 ng/mL) [8]	-13.4	-3.23	19.8	65.5	76.2
SNK-6 (IL-2 2.5 ng/mL) [9]	-1.78	7.1	4.31	59.5	96.2
YT (IL-2 2.5 ng/mL) [10]	2.34	-1.75	1.84	10.8	70.7
[1]	-0.54	2.03	10.3	53.7	95.5
[11]	-6.31	-10.2	7.91	39.2	68.6
[12]	-5.75	-9.19	6.02	2	2.57
[13]	-8.71	-7.23	-6.75	36.8	58
[14]	-15.9	-5.65	-9.13	21.8	58.1

Details	drug sensitivity score
DERL-7 (IL-2 2.5 ng/mL) [16]	13.7
IMC-1 (IL-2 20 ng/mL) [17]	3.91
KAI3 (IL-2 2.5 ng/mL) [18]	17.1
KHYG-1 (IL-2 2.5 ng/mL) [19]	17.9
NK-92 (IL-2 2.5 ng/mL) [20]	8.24
NK-YS (IL-2 2.5 ng/mL) [21]	7.94
NKL (IL-2 2.5 ng/mL) [22]	14.5
SNK-6 (IL-2 2.5 ng/mL) [23]	12.5
YT (IL-2 2.5 ng/mL) [24]	5.7
[15]	12
[25]	8.59
[26]	0
[27]	7.54
[28]	6.17
